Where two headings read alike, the source gives them in different places. Where only a bound is given, the exact number is not on record here.

Broadly, the inhibition is the relative decrease from the control value, in per cent. Broadly, the IC50 is the point on the concentration scale where inhibition reaches its midpoint. One may read the CC50 as the concentration at which the toxic effect on the cells reaches its halfway point. Low values mean harm at low concentration, high ones better tolerance by the cells.

For series [1], the system named is HCV replicon system (Huh-luc/neo-ET cell carrying I389luc-ubi-NS3-3'/ET). Nature of the series: Inhibition of the HCV replication by determining the firefly luciferase activity (HCV replicon system). Format: cell-based, Hepatitis C virus. Conditions: for inhibition at 1 µM: compound concentration 1 μM; for EW (CC50/IC50): ratio of CC50/IC50. An excerpt: HCV replicon system was used to test the effects of compounds on the treatment and prevention of hepatitis C. The HCV replicon system has been acknowledged as a screening tool for new drugs (Lohmann, V. et al., 1999, Replication of subgenomic hepatitis C virus RNAs in hepatoma cell line, Science. Vol. 285, 110-113; Bartenschlager, R. 2002, Hepatitis C virus replicons: potential role for drug development, Nature Reviews/Drug Discovery. Vol. 1, 911-916; Vorlijk, J. M. et al., 2003, A replicon-based bioassay for the measurement of interferons in patients with chronic hepatitis C, Journal of Virological Methods. 110:201-209). The HCV replicon system includes a Huh-luc/neo-ET cell carrying I389luc-ubi-NS3-3′/ET gene construct which monitors the replicative capability of the HCV. In the HCV replicon system, a firefly luciferase-ubiquitin-neomycin fusion protein is expressed by the translation of the internal ribosomal entry site (IRES) of the HCV, and the hepatitis C viral nonstructural proteins (NS3-5B), which includes protease, helicase and polymerase, are expressed by the translation of the IRES of the encephalomyocarditis virus (EMCV).
The IRES of the hepatitis C virus or the hepatitis C viral nonstructural proteins consist of a replication complex. When the replication complex is affected by the candidate compound, the activity of the HCV replicon system is inhibited and the activity of the luciferase is reduced. Accordingly, the inhibition of the HCV can be estimated by determining the activity of the intensity of the luciferase expressed by the Huh-luc/noe-ET cell.
Inhibition of the HCV Replication by Determining the Firefly Luciferase Activity
(§1) Huh-luc/neo-ET cells with a concentration of 2.5×10^4 cells/100 μl/well were seeded into a 96 well culture plate (Corning Incorporation COSTAR, 3599) and placed into a cell incubator for culturing.
The oleanolic acid derivatives as listed in Table 2 were co-cultured with Huh-luc/neo-ET cells for 2 days. The mediums were washed twice by 100 μl of 1×PBS (1 mM KH2PO4, 10 mM Na2HPO4, 137 mM NaCl, 2.7 mM KCl) and PBS was removed. 35 μl of 1× passive lysis buffer (Promega, E1941) was added to the cells and vortexed for 10 minutes to thoroughly lysis the cells.
30 μl/well of the cell suspension was then added to a 96 well white plate (NUNC, 236108) for the measurement of the luciferase activity. Subsequently, 40 μl/well of luminescence analysis buffer and 20 μl/well of luminescence substrate (1 mM D-Luciferin) were added into the 96 well white plates. The luciferase activity (Rlu/s) was measured by a microplate luminescence meter (Berthold, MPL4) immediately.
The luciferase activity of the control was set as a standard to calculate the inhibition rates (%) of HCV of the experiment groups. The inhibition rates was calculated by the following formula: […]
After the test compounds were serial diluted and the inhibition rates of the HCV replication were determined at different concentrations, the concentration at 50% inhibition of the HCV replication (IC50) was calculated by grafit5 software (Erithacus Software).
For each experiment, 0.5 ng/ml and 0.1 ng/ml of the PEG IFN alpha-2a were used as positive controls for the IC50 test. Meanwhile, 1 μg/ml of cyclosporine A (CsA) was also used as a positive control for the IC50 test.
On the technique in general: Replicon systems follow genome replication, usually without infectious particles.

For the next series, the system named is Huh-luc/neo-ET cells. Nature of the series: Cell cytotoxic test (MTT) on Huh-luc/neo-ET cells. Conditions: concentration for 15% cell kill, two-day culture. Format: cell-based. The protocol: (§2) Cell Cytotoxic Test on Huh-luc/noe-ET Cells
as §1
(§3) The next day, the oleanolic acid derivatives as listed in the following Tables 1 and 2 were diluted with a DMEM culture medium to the concentrations of 28.73 μg/ml, 9.57 μg/ml, 3.19 μg/ml, 1.06 μg/ml, 0.35 μg/ml, 0.11 μg/ml, 0.039 μg/ml and 0.013 μg/ml, respectively, or diluted to the concentrations of 114.92 μg/ml, 38.33 μg/ml, 12.77 μg/ml, 4.25 μg/ml, 1.42 μg/ml, 0.46 μg/ml, 0.16 μg/ml and 0.057 μg/ml, respectively. The initial medium in the 96 well culture plate was sucked out by a vacuum pump (DOAT-704AA) without removing the cells. Then, the culture medium containing the oleanolic acid derivatives were added into the 96 well culture plate containing 100 μl/well of the cells as the experiment groups, while the untreated culture mediums were added to the cells as a control.
(§4) After a two-day culture, the medium was removed and each well containing cells was washed by 100 μl of 1×PBS (1 mM KH2PO4, 10 mM Na2HPO4, 137 mM NaCl, 2.7 mM KCl) twice. Precipitates were recorded and PBS was removed. 50 μl of the medium containing 0.5 mg/ml of MTT (Sigma, M2128) was added into each well of the 96 well culture plate. The 96 well culture plate was placed in a CO2 culture incubator for 1 hour. Subsequently, 150 μl of DMSO (Riedel-de Haül, 60153) was added to each well of the 96 well culture plate and vortexed (KS shaker Type 670) to thoroughly mix the resulting purple precipitates. The 96 well culture plate was then placed in a continuous wave length microwell plate analysis system (Molecular Devices, SPECTRAMAX 190) to measure the absorbance of cells at a wavelength of 560 nm.
(§5) The average absorbance of the control was set as 100% of the cell survival rates (%) to calculate the cell survival rates (%) of the experiment groups with different concentrations of the oleanolic acid derivatives.
(§6) The cell survival rate was calculated by the following formula: Absorbance of the experiment group/Absorbance of the control×100%
(§7) The data of the cell survival rates for all experiment groups were plotted on an x-y graph to see the distribution. A trend line was obtained. […]

Series [2] is described as follows: Cell cytotoxic test (MTT) on Huh-luc/neo-ET cells. Type of series: cell-based. Conditions: human, concentration for 50% cell kill, two-day culture. The protocol: as §2, §1, §3, §4, §5, §6, §7
[3] abbreviates: Hepatitis C virus, Huh-luc/neo-ET, 48 h, 2 days co-culture, luciferase activity, read-out: Inhibition rate (%).
Where [4] appears, read: Hepatitis C virus, concentration for 50% inhibition of the HCV replication, Huh-luc/neo-ET replicon cells, read-out: IC50.
[5] abbreviates: Hepatitis C virus, Huh-luc/neo-ET.
Setting [6] is: Hepatitis C virus, Huh-luc/neo-ET, 48 h, read-out: Inhibition rate (%).

With `C=CC(C)(O)CC/C=C(\C)C(=O)OCC1OC(OC(=O)C23CCC4(C)C(=CCC5C6(C)CCC(OC7OC(COC8OC(CO)C(O)C(O)C8O)C(OC8OCC(O)C(O)C8OC8OCC(O)C(O)C8O)C(O)C7NC(C)=O)C(C)(C)C6CCC54C)C2CC(C)(C)C(O)C3O)C(OC2OCC(OC3OCC(O)(CO)C3O)C(O)C2O)C(O)C1OC1OC(CO)C(OC(C)=O)C(O)C1O` (centres unmarked) [A17], the inhibition at 1 µM in series [1] (setting [3]) stood at 94.9 ± 1.2%. In addition, in series [1] (setting [4]), the concentration for half-maximal inhibition (IC50) is 0.057 ± 0.003 µM. Besides, in series [1], the “EW (CC50/IC50)” value worked out at 317.89. The molecule further registered a CC15 with Huh-luc/neo-ET cells of 1.49 µM. In series [2], this molecule gave a cytotoxic concentration (CC50) at 2 days of 18.1 µM.
Regarding `C/C=C(/C)C(=O)OC1CC(C)(C)CC2C3=CCC4C5(C)CCC(OC6OC(C)C(OC7OC(C(=O)O)C(O)C(OC8OC(CO)C(O)C(O)C8OC8OC(CO)C(O)C(O)C8O)C7O)C(O)C6O)C(C)(C)C5CCC4(C)C3(C)C(OC(=O)/C=C/C=C/C=C/CCC)C(OC(C)=O)C12CO` (centres unmarked) [A15], in series [1] (setting [5]), the midpoint of inhibition, the IC50, lay at 3.94 ± 0.13 µM. Moreover, the inhibition at 10 µM in series [1] (setting [6]) amounted to 92 ± 1.6%. In addition, the “EW (CC50/IC50)” value in series [1] stood at 25.38. Besides, the CC15 in the series with Huh-luc/neo-ET cells was >100 µM. Further, in series [2], the CC50 at 2 days is > 100 µM.
With `C=CC(C)(CC/C=C(\CO)C(=O)OC1CC2(C(=O)OC3OCC(OC4CC(CO)C(O)C(OC5OC(CO)C(OC6OC(C)C(O)C(O)C6O)C(O)C5O)C4O)C(O)C3O)CCC3(C)C(=CCC4C5(C)CCC(OC6OC(CO)C(OC7OC(CO)C(O)C(OC8OCC(O)C(O)C8O)C7O)C(O)C6O)C(C)(C)C5CCC43C)C2CC1(C)C)OC1OC(C)C(O)C(O)C1O` (centres unmarked) [A27], the inhibition at 10 µM in series [1] (Hepatitis C virus, Huh-luc/neo-ET, 48 h, compound concentration 10 μM, 2 days co-culture, luciferase activity, read-out: Inhibition rate (%)) stood at 96.9 ± 0.6%. Further, the half-maximal inhibitory concentration (IC50) in series [1] (setting [4]) came to 0.72 ± 0.07 µM. The “EW (CC50/IC50)” value in series [1] amounted to 106.56. In the series on Huh-luc/neo-ET cells, this molecule had a CC15 of 19.44 µM. This molecule had a CC50 at 2 days in series [2] of 76.7 µM.
`COc1ccc(/C=C/C(=O)OC2C(C)OC(OC(=O)C34CCC(C)(C)CC3C3=CCC5[C@@]6(C)CC[C@H](OC7OC(C(=O)O)C(O)C(O)C7OC7OC(CO)C(O)C(O)C7O)[C@@](C)(C=O)C6CC[C@@]5(C)[C@]3(C)C[C@H]4O)C(OC3OC(C)C(O)C(O)C3OC3OCC(O)C(O)C3O)C2O)cc1` (some centres unmarked) [A12]: in series [1] (setting [5]), the IC50 amounted to 0.08 ± 0.003 µM. In addition, the inhibition at 10 µM in series [1] (setting [6]) was 95.8 ± 1%. Further, the “EW (CC50/IC50)” value in series [1] amounted to 1250. Moreover, in the series with Huh-luc/neo-ET cells, the CC15 is >100 µM. The cytotoxic concentration (CC50) at 2 days in series [2] is > 100 µM.
Regarding `C=CC(C)(O)CC/C=C(\C)C(=O)OC1C(O)C(CO)OC(OC(=O)C23CCC(C)(C)CC2C2=CCC4C5(C)CCC(OC6OC(COC7OCC(OC(C)=O)C(O)C7OC7OC(COC(C)=O)C(O)C(O)C7OC(C)=O)C(O)C(O)C6OC6OCC(O)C(O)C6O)C(C)(C)C5CCC4(C)C2(C)C(O)C3O)C1OC1OCC(OC2OCC(O)C(OC3OCC(O)C(O)C3O)C2O)C(O)C1O` (centres unmarked) [A19], the inhibition at 1 µM in series [1] (setting [3]) stood at 94.8 ± 1.6%. Further, the IC50 in series [1] (setting [4]) is 0.041 ± 0.005 µM. The “EW (CC50/IC50)” value in series [1] is 435.61. In the series with Huh-luc/neo-ET cells, the CC15 worked out at 1.17 µM. This molecule gave a CC50 at 2 days in series [2] of 17.9 µM.
The molecule `C=CC(C)(O)CCCC(C)C(=O)OC1C(C)OC(OC(C)(C=C)CC/C=C(\CO)C(=O)OC2CC3(C(=O)OC4OCC(OC5OC(CO)C(O)C(OC6OC(CO)C(OC7OC(C)C(O)C(O)C7O)C(O)C6O)C5O)C(O)C4O)CCC4(C)C(=CCC5C6(C)CCC(OC7OC(CO)C(OC8OC(CO)C(O)C(OC9OCC(O)C(O)C9O)C8O)C(O)C7O)C(C)(C)C6CCC54C)C3CC2(C)C)C(O)C1O` (centres unmarked) [A23] yielded an IC50 in series [1] (setting [5]) of 0.23 ± 0.02 µM. Also, the inhibition at 5 µM in series [1] (setting [6]) came out at 93.5 ± 0.4%. The “EW (CC50/IC50)” value in series [1] is given as 156.73. The molecule also returned a CC15 in the series with Huh-luc/neo-ET cells of 7.96 µM. This molecule also yielded a CC50 at 2 days in series [2] of 38.1 µM.
With `C=CC(C)(O)CCCC(C)C(=O)OC1C(OC2OCC(OC3OC(CO)C(O)C(O)C3O)C(OC3OCC(O)C(OC4OC(CO)C(O)C(O)C4O)C3O)C2O)COC(OC(=O)C23CCC(C)(C)CC2C2=CCC4C5(C)CCC(OC6OC(CO)C(OC7OC(CO)C(O)C(OC8OCC(O)C(O)C8O)C7O)C(O)C6O)C(C)(C)C5CCC4(C)C2(C)CC3O)C1O` (centres unmarked) [A10], the inhibition at 2 µM in series [1] (Hepatitis C virus, Huh-luc/neo-ET, 48 h, compound concentration 2 μM, 2 days co-culture, luciferase activity, read-out: Inhibition rate (%)) worked out at 95.7 ± 0.6%. In series [1] (setting [4]), the IC50 was 0.31 ± 0.04 µM. Moreover, in series [1], the “EW (CC50/IC50)” value is given as 126.13. Further, the CC15 in the series on Huh-luc/neo-ET cells stood at 2.2 µM. This molecule yielded a CC50 at 2 days in series [2] of 39.1 µM.
